In patent US6734165B2, “Method for re-sensitizing vancomycin resistant bacteria which selectively cleave a cell wall depsipeptide” (The Trustees of Columbia University in the City of New York, priority 2001, dated 2004):
Where two headings read alike, the source gives them in different places.

Key:
[1] = Hydrolysis of D—Ala—D—Lac depsipeptide derivative 5 in aqueous phosphate buffer, followed by HPLC; assay type: biochemical; details: substrate 5 0.5 mM, phosphate buffer pH 7.0, 37° C.; for effect on the rate of hydrolysis over buffer: peptides 12 mM
Procedure: The ability of peptide 4a in cleaving the substrate 5 was assessed in aqueous phosphate buffer pH=7 at 37° C. Stock solutions of 16 mM of 5 and 130 mM of peptide were made in water. Phosphate buffer solution of 25 mM was made by adjusting the pH of a K2HPO4 solution to 7.0 by addition of concentrated HCl. To a 1.5 mL glass vial (Waters) were added 5 μL stock solution of 5 and 15 μL stock solution of peptide, followed by 135 μL buffer. The volume was adjusted to 160 μL by addition of water. Vials were kept in an incubator at 37° C. and 2 μL aliquots were taken every 3 h. Each aliquot was diluted with water to 5 μL and 2 μL were injected in HPLC. Separation of components was carried out on a reverse phase column C18 (Waters) using a gradient water/acetonitrile (0.1% TFA).
Using HPLC and monitoring the p-NO2-phenyl derivative by UV at 275 nm, we could easily follow the disappearance of D—Ala—D—Lac derivative 5 and the formation of the hydrolyzed product 4. Under these conditions, we observed a 20% cleavage of the depsipeptide in 24 hrs. […] This proves that the whole structural assembly is necessary for the reaction to occur and that the reaction is not an artifact resulted by a change in the pH of the media due to the presence of the amine functionality.
N-acylated prolinol derivatives (FIG. 5) are the simplest structures that could fulfill such requirements. Their primary alcohol functionality forms an internal H-bond with the amide, the structures allow for the addition of the […] (NH2) through various linkers and moreover, are chiral molecules. The derivatives were tested for their ability to cleave 5 in aqueous phosphate buffer pH=7.0 at 37° C. (FIG. 6). […] One explanation for the higher activity of the very simple molecule SProC5 compared to 4a is the enhanced nucleophilicity of its hydroxyl (H position in H^1 NMR 7.59 ppm vs 6.62 ppm). Activity declines in the series with the decrease of the chain length from 5 carbons to 1 carbon. […] To confirm these speculations we compared the chemical shifts of the OH and NH in the H^1 NMR spectra of the NHBoc protected SProCn series (Table 1).
Substrate 5 was used at 0.5 mM, while prolinol derivatives were run at 12 mM. The graph is the average of three separate assays (FIG. 6).
The ability of peptide 4a in cleaving the substrate 5 was assessed in aqueous phosphate buffer pH 7 at 37° C. Using HPLC and monitoring the p-NO2-phenyl derivative by UV at 275 nm, we could easily follow the disappearance of D—Ala—D—Lac derivative 5 and the formation of the hydrolyzed product 4. […] A 20% hydrolysis of D—Ala—D—Lac in the presence of 4a was observed after 24 h.
The prolinol derivatives were additionally, tested for their ability to cleave 5 in aqueous phosphate buffer pH 7.0 at 37° C. […]

[2] = Combinatorial library screening on beads against red dye-labeled substrate 1; details: substrate 1 in 12DCE or DMF, 3-5 days
Procedure: Substrate 1 is treated with combinatorial libraries of potential nucleophiles on solid phase synthesis beads (2), and then those library members are selected that covalently linked the dye to a bead (3). This could be possible assuming that noncovalently bound material would be washed away with a polar solvent (Scheme 2). [drawing 4]
The assay for screening these libraries against 1 involves shaking a desired amount of library beads with the solution of labeled substrate for a period of time. To the library beads were added 200 μL solution of substrate 1 in 12DCE (or DMF), and the mixture was rotated for 3-5 days in a small glass vial. DMF was added and shaking continued for 1 h. Solvent was removed and the washing was repeated several times. One wash was performed with one drop of benzylamine added to DMF to remove any remaining physically bound substrate. The strongly red beads were picked individually in 1.5 μL DMF (in 25 μL capillaries) and photolysed for 6 h under a short wave UV lamp. Decoding was achieved by injecting the content of each capillary in EC-GC and comparing the chromatogram to a standard (20,21).
After the reaction occurred, the label-carrying beads were selected and analyzed (20,21). The initial assays were performed in 1,2-dichloroethane (12DCE) at a concentration of 2.3 mM in substrate 1.
The assay for screening these libraries against 1 involved shaking a desired amount of library beads with the solution of labeled substrate for a period of time. After the reaction occured, the label-carrying beads were selected and analyzed. The initial assays were performed in 1,2-dichloroethane (12DCE) at a concentration of 2.3 mM in substrate 1. After 3 days of shaking, the beads were extensively washed with dimethylformamide (DMF) and once with a diluted solution of benzylamine in DMF to remove any physically bound substrate (FIGS. 9A and 9B).

enterococcus = details: cited from earlier work
[3] = incorporation of D—Ala—D—Lac by VRE; cited from earlier work

Row | Compound | effect on the rate of hydrolysis over buffer [1] | activity in bead screening (red beads / active sequence) [2] | also measured
1 | BnNHL—LysNHAc [compound 8] | No significant effect | – | –
2 | BnNHL—Lys—D—Pro—L—Ser(tBut)CONMe2 [compound 7] | No significant effect | – | –
3 | L—Lys—D—Pro—L—Ser dimethylurea | – | an active sequence found more frequently in the assays | –
4 | BnNHD—Pro—L—Ser(OH)NHCONMe2 [compound 6] | No significant effect | – | –
5 | D—Asn—L—Lys—L—Pro—L—SerNH2 | – | active sequence | –
6 | D—Lys—L—Pro—D—Ser dimethylurea | – | never found as an active sequence | –
7 | CN[C@H](CC(C)C)C(=O)N[C@H]1C(=O)N[C@@H](CC(N)=O)C(=O)N[C@H]2C(=O)N[C@H]3C(=O)N[C@H](C(=O)N[C@H](C(=O)O)c4cc(O)cc(O)c4-c4cc3ccc4O)[C@H](O)c3ccc(c(Cl)c3)Oc3cc2cc(c3O[C@@H]2O[C@H](CO)[C@@H](O)[C@H](O)[C@H]2O[C@H]2C[C@](C)(N)[C@H](O)[C@H](C)O2)Oc2ccc(cc2Cl)[C@H]1O [vancomycin] | – | – | MIC of vancomycin (enterococcus; 10% of the peptidoglycan altered to D—Ala—D—Lac): 32 µg/mL; MIC of vancomycin (enterococcus; unaltered peptidoglycan): 2 µg/mL; decrease of affinity of vancomycin for the peptidoglycan layer [3]: over 1000 fold
8 | BnNHL—Lys—D—Pro—L—SerCONMe2 [4a] | – | – | cleavage of the depsipeptide in 24 hrs ([1]; compound 12 mM, 24 h): 20%
